Assay results reported in US6054435A, “6-O-substituted macrolides having antibacterial activity” (priority 1999, dated 2000).
Converted amounts (≈) assume the structure as drawn.

How the values were obtained:
Assay in all cases: in vitro antibacterial activity (MIC), agar dilution
Format in all cases: cell-based
[1] = test system: Nocardia Asteroides ATCC9970; settings: organism code VV; BHI agar, 35-37° C., 20 to 24 hours; unit assumed
Experimental: (§1) Representative compounds of the present invention were assayed in vitro for antibacterial activity as follows: Twelve petri dishes containing successive aqueous dilutions of the test compound mixed with 10 mL of sterilized Brain Heart Infusion (BHI) agar (Difco 0418-01-5) were prepared. Each plate was inoculated with 1:100 (or 1:10 for slow-growing strains, such as Micrococcus and Streptococcus) dilutions of up to 32 different microorganisms, using a Steers replicator block. […] In addition, a control plate, using BHI agar containing no test compound, was prepared and incubated at the beginning and end of each test.
(§2) An additional plate containing a compound having known susceptibility patterns for the organisms being tested and belonging to the same antibiotic class as the test compound was also prepared and incubated as a further control, as well as to provide test-to-test comparability.
(§3) After incubation, each plate was visually inspected. The minimum inhibitory concentration (MIC) was defined as the lowest concentration of drug yielding no growth, a slight haze, or sparsely isolated colonies on the inoculum spot as compared to the growth control.

Escherichia coli JUHL = settings: organism code QQ; BHI agar, 35-37° C., 20 to 24 hours; unit assumed
Experimental: as §1, §2, §3

Candida albicans CCH 442 = settings: organism code TT; BHI agar, 35-37° C., 20 to 24 hours; unit assumed
Experimental: as §1, §2, §3

[2] = test system: Staphylococcus aureus ATCC 6538P; settings: organism code AA; BHI agar, 35-37° C., 20 to 24 hours; unit assumed
Experimental: as §1, §2, §3

[3] = test system: Streptococcus agalactiae CMX 508; settings: organism code KK; BHI agar, 35-37° C., 20 to 24 hours; unit assumed
Experimental: as §1, §2, §3

[4] = test system: Streptococcus Pneumonia 5649; settings: organism code ZZA; BHI agar, 35-37° C., 20 to 24 hours; unit assumed
Experimental: as §1, §2, §3

[5] = test system: Enterococcus faecium ATCC 8043; settings: organism code II; BHI agar, 35-37° C., 20 to 24 hours; unit assumed
Experimental: as §1, §2, §3

Escherichia coli SS = settings: organism code RR; BHI agar, 35-37° C., 20 to 24 hours; unit assumed
Experimental: as §1, §2, §3

Escherichia coli DC-2 = settings: organism code SS; BHI agar, 35-37° C., 20 to 24 hours; unit assumed
Experimental: as §1, §2, §3

[6] = test system: Streptococcus Pneumonia 5979; settings: organism code ZZ; BHI agar, 35-37° C., 20 to 24 hours; unit assumed
Experimental: as §1, §2, §3

[7] = test system: Streptococcus Pneumonia GYR 1171; settings: organism code YY; BHI agar, 35-37° C., 20 to 24 hours; unit assumed
Experimental: as §1, §2, §3

[8] = test system: Mycobacterium smegmatis ATCC 114; settings: organism code UU; BHI agar, 35-37° C., 20 to 24 hours; unit assumed
Experimental: as §1, §2, §3

[9] = test system: Streptococcus pyogenes PIU 2548; settings: organism code NN; BHI agar, 35-37° C., 20 to 24 hours; unit assumed
Experimental: as §1, §2, §3

[10] = test system: Staphylococcus aureus CMX 642A; settings: organism code DD; BHI agar, 35-37° C., 20 to 24 hours; unit assumed
Experimental: as §1, §2, §3

[11] = test system: Staphylococcus aureus A5177; settings: organism code BB; BHI agar, 35-37° C., 20 to 24 hours; unit assumed
Experimental: as §1, §2, §3

[12] = test system: Staphylococcus aureus NCTC10649M; settings: organism code EE; BHI agar, 35-37° C., 20 to 24 hours; unit assumed
Experimental: as §1, §2, §3

[13] = test system: Staphylococcus aureus CMX 553; settings: organism code FF; BHI agar, 35-37° C., 20 to 24 hours; unit assumed
Experimental: as §1, §2, §3

[14] = test system: Staphylococcus aureus 1775; settings: organism code GG; BHI agar, 35-37° C., 20 to 24 hours; unit assumed
Experimental: as §1, §2, §3

[15] = test system: Streptococcus pyogenes 930; settings: organism code MM; BHI agar, 35-37° C., 20 to 24 hours; unit assumed
Experimental: as §1, §2, §3

[16] = test system: Staphylococcus aureus A-5278; settings: organism code CC; BHI agar, 35-37° C., 20 to 24 hours; unit assumed
Experimental: as §1, §2, §3

[17] = test system: Streptococcus Pneumonia ATCC6303; settings: organism code XX; BHI agar, 35-37° C., 20 to 24 hours; unit assumed
Experimental: as §1, §2, §3

[18] = test system: Streptococcus bovis A-5169; settings: organism code JJ; BHI agar, 35-37° C., 20 to 24 hours; unit assumed
Experimental: as §1, §2, §3

[19] = test system: Micrococcus luteus ATCC 9341; settings: organism code OO; BHI agar, 35-37° C., 20 to 24 hours; unit assumed
Experimental: as §1, §2, §3

[20] = test system: Micrococcus luteus ATCC 4698; settings: organism code PP; BHI agar, 35-37° C., 20 to 24 hours; unit assumed
Experimental: as §1, §2, §3

[21] = test system: Staphylococcus epidermidis 3519; settings: organism code HH; BHI agar, 35-37° C., 20 to 24 hours; unit assumed
Experimental: as §1, §2, §3

[22] = test system: Streptococcus pyogenes EES61; settings: organism code LL; BHI agar, 35-37° C., 20 to 24 hours; unit assumed
Experimental: as §1, §2, §3

[23] = test system: Haemophilis Influenzae DILL AMP R; settings: organism code WW; BHI agar, 35-37° C., 20 to 24 hours; unit assumed
Experimental: as §1, §2, §3

`CC[C@H]1OC(=O)[C@H](C)C(=O)[C@H](C)[C@@H](O[C@@H]2O[C@H](C)C[C@H](N(C)C)[C@H]2O)[C@](C)(OC/C=C/c2cncc(-c3cncc4ccccc34)c2)C[C@@H](C)C(=O)[C@H](C)[C@H]2NC(=O)O[C@@]21C` [Example 48] gave an MIC [1] of 0.05 µg/mL (≈ 0.0593 µM), an MIC (Escherichia coli JUHL) of over 100 µg/mL and an MIC (Candida albicans CCH 442) of over 100 µg/mL. For the same compound, the MIC [2] was 0.2 µg/mL (≈ 0.237 µM), the MIC [3] was 0.02 µg/mL (≈ 0.0237 µM) and the MIC [4] was 0.25 µg/mL (≈ 0.297 µM). The MIC [5] was 0.05 µg/mL (≈ 0.0593 µM), the MIC (Escherichia coli SS) was 0.78 µg/mL (≈ 0.925 µM) and the MIC (Escherichia coli DC-2) was over 100 µg/mL. It also gave an MIC [6] of 16 µg/mL (≈ 19 µM), an MIC [7] of at most 0.004 µg/mL and an MIC [8] of 0.78 µg/mL (≈ 0.925 µM). It also gave an MIC [9] of 0.2 µg/mL (≈ 0.237 µM), an MIC [10] of 0.2 µg/mL (≈ 0.237 µM) and an MIC [11] of 0.2 µg/mL (≈ 0.237 µM). For the same compound, the MIC [12] was 0.2 µg/mL (≈ 0.237 µM), the MIC [13] was 0.2 µg/mL (≈ 0.237 µM) and the MIC [14] was over 100 µg/mL. It also gave an MIC [15] of 100 µg/mL (≈ 119 µM), an MIC [16] of over 100 µg/mL and an MIC [17] of at most 0.004 µg/mL. For the same compound, the MIC [18] was 0.02 µg/mL (≈ 0.0237 µM), the MIC [19] was 0.05 µg/mL (≈ 0.0593 µM) and the MIC [20] was 0.1 µg/mL (≈ 0.119 µM). For the same compound, the MIC [21] was 0.2 µg/mL (≈ 0.237 µM) and the MIC [22] was 0.05 µg/mL (≈ 0.0593 µM).
`CC[C@H]1OC(=O)[C@H](C)C(=O)[C@H](C)[C@@H](O[C@@H]2O[C@H](C)C[C@H](N(C)C)[C@H]2O)[C@](C)(OCC#Cc2ccc(-c3cc(Cl)cc(Cl)c3)s2)C[C@@H](C)C(=O)[C@H](C)[C@H]2NC(=O)O[C@@]21C` [Example 17] was tested, and the MIC [1] was 0.78 µg/mL (≈ 0.903 µM), the MIC (Escherichia coli JUHL) was over 100 µg/mL and the MIC (Candida albicans CCH 442) was over 100 µg/mL. For the same compound, the MIC [2] was 0.39 µg/mL (≈ 0.451 µM), the MIC [3] was 0.2 µg/mL (≈ 0.232 µM) and the MIC [4] was 1 µg/mL (≈ 1.16 µM). For the same compound, the MIC [5] was 0.78 µg/mL (≈ 0.903 µM), the MIC (Escherichia coli SS) was 12.5 µg/mL (≈ 14.5 µM) and the MIC [23] was 8 µg/mL (≈ 9.26 µM). It also gave an MIC (Escherichia coli DC-2) of over 100 µg/mL, an MIC [6] of 1 µg/mL (≈ 1.16 µM) and an MIC [7] of 0.125 µg/mL (≈ 0.145 µM). It also gave an MIC [8] of 0.78 µg/mL (≈ 0.903 µM), an MIC [9] of 0.39 µg/mL (≈ 0.451 µM) and an MIC [10] of 0.78 µg/mL (≈ 0.903 µM). It also gave an MIC [11] of 0.78 µg/mL (≈ 0.903 µM), an MIC [12] of 1.56 µg/mL (≈ 1.81 µM) and an MIC [13] of 0.78 µg/mL (≈ 0.903 µM). It also gave an MIC [14] of 12.5 µg/mL (≈ 14.5 µM), an MIC [15] of 3.1 µg/mL (≈ 3.59 µM) and an MIC [16] of 12.5 µg/mL (≈ 14.5 µM). The MIC [18] was 0.2 µg/mL (≈ 0.232 µM), the MIC [19] was 0.39 µg/mL (≈ 0.451 µM) and the MIC [20] was 0.78 µg/mL (≈ 0.903 µM). It also gave an MIC [21] of 0.78 µg/mL (≈ 0.903 µM) and an MIC [22] of 0.39 µg/mL (≈ 0.451 µM).
`CC[C@H]1OC(=O)[C@H](C)[C@@H](O[C@H]2C[C@@](C)(OC)[C@@H](O)[C@H](C)O2)[C@H](C)[C@@H](O[C@@H]2O[C@H](C)C[C@H](N(C)C)[C@H]2O)[C@](C)(O)C[C@@H](C)C(=O)[C@H](C)[C@@H](O)[C@]1(C)O` [Ery. A, Erythromycin A, reference compound] gave an MIC [1] of 0.1 µg/mL (≈ 0.136 µM), an MIC (Escherichia coli JUHL) of over 100 µg/mL and an MIC (Candida albicans CCH 442) of over 100 µg/mL. The MIC [2] was 0.2 µg/mL (≈ 0.273 µM), the MIC [3] was 0.05 µg/mL (≈ 0.0681 µM) and the MIC [4] was 16 µg/mL (≈ 21.8 µM). It also gave an MIC [5] of 0.05 µg/mL (≈ 0.0681 µM), an MIC (Escherichia coli SS) of 0.78 µg/mL (≈ 1.06 µM) and an MIC [23] of 4 µg/mL (≈ 5.45 µM). For the same compound, the MIC (Escherichia coli DC-2) was over 100 µg/mL, the MIC [7] was 0.06 µg/mL (≈ 0.0818 µM) and the MIC [8] was 3.1 µg/mL (≈ 4.22 µM). The MIC [9] was 6.2 µg/mL (≈ 8.45 µM), the MIC [10] was 0.39 µg/mL (≈ 0.531 µM) and the MIC [11] was 3.1 µg/mL (≈ 4.22 µM). For the same compound, the MIC [12] was 0.39 µg/mL (≈ 0.531 µM), the MIC [13] was 0.39 µg/mL (≈ 0.531 µM) and the MIC [14] was over 100 µg/mL. The MIC [15] was over 100 µg/mL, the MIC [16] was over 100 µg/mL and the MIC [17] was 0.06 µg/mL (≈ 0.0818 µM). For the same compound, the MIC [18] was 0.02 µg/mL (≈ 0.0273 µM), the MIC [19] was 0.05 µg/mL (≈ 0.0681 µM) and the MIC [20] was 0.2 µg/mL (≈ 0.273 µM). For the same compound, the MIC [21] was 0.39 µg/mL (≈ 0.531 µM) and the MIC [22] was 0.05 µg/mL (≈ 0.0681 µM).
